Measurements published in US12037344B2, “NLRP3 modulators” (INNATE TUMOR IMMUNITY, INC., priority 2018, dated 2024).
Read-outs that look alike come from different tables or passages of the source.

What was measured:
[1] = test system: THP-1 cells; experiment: Measurement of IL-1β production, hTRF protocol (second alternative procedure), THP-1 cells; format: cell-based, human
How it was run: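 Compounds, dilution series starting at a final 10 μM, were incubated 2 hours at 37° C with PMA-differentiated THP-1 cells (50 ng/ml overnight; 50,000 cells/well, 2% FBS RPMI). Released IL-1β quantified in supernatant by hTRF kit with 1:40 antibody dilution, 4° C overnight, 665/615 nm ratio.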

[2] = biological target: T1, TLR7 (Homo sapiens, UniProt Q9NYK1); experiment: In vitro human TLR7 binding reporter assay (HEK-Blue, NF-kB/AP1-inducible SEAP); format: cell-based; conditions: read-out: TLR7 Agonist EC50
T1 construct: human HEK-Blue cells co-expressing a TLR7 or TLR8 gene
T1 sequence (Q9NYK1 27-1049): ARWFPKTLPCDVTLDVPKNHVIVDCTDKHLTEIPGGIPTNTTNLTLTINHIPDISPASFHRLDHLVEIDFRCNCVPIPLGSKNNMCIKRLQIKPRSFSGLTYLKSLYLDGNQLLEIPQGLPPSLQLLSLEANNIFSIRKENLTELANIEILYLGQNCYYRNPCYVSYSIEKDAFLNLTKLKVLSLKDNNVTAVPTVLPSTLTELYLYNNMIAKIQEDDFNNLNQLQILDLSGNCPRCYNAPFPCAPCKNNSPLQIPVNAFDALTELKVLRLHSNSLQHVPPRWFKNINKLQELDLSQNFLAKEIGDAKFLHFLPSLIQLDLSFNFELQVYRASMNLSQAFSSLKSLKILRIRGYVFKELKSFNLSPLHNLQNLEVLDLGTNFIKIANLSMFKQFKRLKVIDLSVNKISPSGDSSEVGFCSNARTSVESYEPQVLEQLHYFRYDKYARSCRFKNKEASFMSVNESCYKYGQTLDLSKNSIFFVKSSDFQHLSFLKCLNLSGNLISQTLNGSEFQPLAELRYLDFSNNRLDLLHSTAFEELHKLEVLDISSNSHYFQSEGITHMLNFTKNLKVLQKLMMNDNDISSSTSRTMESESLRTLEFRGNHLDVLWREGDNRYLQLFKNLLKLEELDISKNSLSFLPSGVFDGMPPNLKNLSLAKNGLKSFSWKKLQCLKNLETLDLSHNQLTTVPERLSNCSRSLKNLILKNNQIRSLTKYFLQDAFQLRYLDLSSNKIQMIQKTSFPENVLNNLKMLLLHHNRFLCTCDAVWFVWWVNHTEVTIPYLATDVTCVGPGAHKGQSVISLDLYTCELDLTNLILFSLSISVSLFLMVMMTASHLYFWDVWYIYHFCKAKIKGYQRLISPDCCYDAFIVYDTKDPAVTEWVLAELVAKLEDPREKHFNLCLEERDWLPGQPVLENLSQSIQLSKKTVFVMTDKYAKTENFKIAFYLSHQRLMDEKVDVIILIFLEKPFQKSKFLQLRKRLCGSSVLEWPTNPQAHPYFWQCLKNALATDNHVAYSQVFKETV
How it was run: (§1)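 HEK-Blue cells expressing human TLR7 or TLR8 with NF-kB/AP1-inducible SEAP reporter, plated 24 h, then compound-treated 18 h at 37° C, 5% CO2. EC50 normalized to 100% Ymax set by 50 μM reference standard.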

[3] = biological target: T2, TLR8 (Homo sapiens, UniProt Q9NR97); experiment: In vitro human TLR8 binding reporter assay (HEK-Blue, NF-kB/AP1-inducible SEAP); format: cell-based; conditions: read-out: TLR8 Agonist EC50
T2 construct: human HEK-Blue cells co-expressing a TLR7 or TLR8 gene
T2 sequence (Q9NR97 27-1041): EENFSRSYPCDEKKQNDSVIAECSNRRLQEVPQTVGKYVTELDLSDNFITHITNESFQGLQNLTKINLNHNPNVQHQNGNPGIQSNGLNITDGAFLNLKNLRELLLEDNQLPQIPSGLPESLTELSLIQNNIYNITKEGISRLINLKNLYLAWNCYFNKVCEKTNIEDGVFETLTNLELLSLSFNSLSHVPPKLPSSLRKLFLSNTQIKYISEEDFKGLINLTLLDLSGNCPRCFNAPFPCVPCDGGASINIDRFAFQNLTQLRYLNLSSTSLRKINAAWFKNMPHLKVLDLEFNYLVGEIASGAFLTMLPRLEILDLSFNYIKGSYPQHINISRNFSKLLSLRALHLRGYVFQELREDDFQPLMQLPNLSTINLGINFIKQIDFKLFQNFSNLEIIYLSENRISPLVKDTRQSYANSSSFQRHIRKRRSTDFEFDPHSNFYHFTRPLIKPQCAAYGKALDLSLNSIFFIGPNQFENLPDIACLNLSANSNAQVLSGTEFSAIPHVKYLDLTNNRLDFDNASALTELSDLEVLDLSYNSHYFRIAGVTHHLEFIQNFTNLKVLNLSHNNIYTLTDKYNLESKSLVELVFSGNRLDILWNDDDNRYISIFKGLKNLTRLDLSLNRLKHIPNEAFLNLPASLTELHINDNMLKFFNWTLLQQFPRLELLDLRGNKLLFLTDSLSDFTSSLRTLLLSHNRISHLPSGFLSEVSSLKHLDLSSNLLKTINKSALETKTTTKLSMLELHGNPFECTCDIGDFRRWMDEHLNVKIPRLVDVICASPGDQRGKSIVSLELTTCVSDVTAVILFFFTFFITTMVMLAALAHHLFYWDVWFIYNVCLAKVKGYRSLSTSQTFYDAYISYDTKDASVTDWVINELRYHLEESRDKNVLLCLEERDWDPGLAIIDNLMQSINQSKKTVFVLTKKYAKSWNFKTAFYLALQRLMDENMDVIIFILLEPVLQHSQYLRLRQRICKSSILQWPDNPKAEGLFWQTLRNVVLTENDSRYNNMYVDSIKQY
How it was run: as §1

[4] = Homo sapiens, THP-1, IL-1β production, human, read-out: NLRP3 hILIB EC50
[5] = Homo sapiens, THP-1, IL-1β production, human cells, read-out: NLRP3 hILIB EC50
[6] = Homo sapiens, THP-1, read-out: NLRP3 hILIB EC50

| SMILES | EC50 [1, 4] [µM] | EC50 ([2]; activity range class) [µM] | EC50 ([3]; activity range class) [µM] | EC50 [1, 5] [µM] | EC50 ([2]; activity range) [µM] | EC50 ([3]; activity range) [µM] | EC50 ([1]; IL-1β production, human, read-out: NLRP3 hILIB EC50) [µM] | EC50 [1, 6] [µM] |
| --- | --- | --- | --- | --- | --- | --- | --- | --- |
| CCS(=O)(=O)N[C@@H](C)Cn1cc2c(N)nc3cc(-c4cc[nH]n4)ccc3c2n1 [Example 465] |  |  |  | 1.9 | > 100 | > 100 |  |  |
| Nc1nc2cc(-c3cc[nH]n3)ccc2c2cn(CCNC(=O)Oc3ccccc3)nc12 [Example 117, phenyl N-{2-[4-amino-7-(1H-pyrazol-3-yl)-2H-pyrazolo[3,4-c]quinolin-2-yl]ethyl}carbamate] |  | > 100 | 20 to 100 |  |  |  |  | 0.57 |
| NC(=O)C1(Cn2cc3c(n2)c(N)nc2cc(-c4cc[nH]n4)ccc23)CC1 [Example 527] |  |  |  | 0.4 | > 100 | > 100 |  |  |
| N#CCn1cc2c(n1)c(N)nc1cc(-c3cc[nH]n3)ccc12 [Example 551] |  |  |  | 2.24 | > 100 | > 100 |  |  |
| Nc1nc2cc(-c3cc[nH]n3)ccc2c2nn(CC(O)CO)cc12 (stereo not drawn) [Example 234] | 0.56 | > 100 | > 100 |  |  |  |  |  |
| CN(C)C(=O)Cn1cc2c(N)nc3cc(-n4cccn4)ccc3c2n1 [Example 553] |  |  |  | 2.11 | > 100 | > 100 |  |  |
| Nc1nc2cc(-c3cc[nH]n3)ccc2c2nn(C3CCCC3O)cc12 (single isomer, unassigned) [Example 315] |  | > 100 | > 100 |  |  |  | 0.89 |  |
| NCc1cc2c(N)nc3cc(-n4cccn4)ccc3c2[nH]1 [Example 437] |  |  |  | 0.56 | > 100 | > 100 |  |  |
| Nc1nc2cc(-n3cccn3)ccc2c2nn(CCc3c[nH]cn3)cc12 [Example 391] | 0.2 | > 100 | > 100 |  |  |  |  |  |
| COCCn1cc2c(N)nc3cc(-c4cccs4)ccc3c2n1 [Example 248, 2-(2-methoxyethyl)-7-(thiophen-2-yl)-2H-pyrazolo[4,3-c]quinolin-4-amine] | 0.65 | > 100 | > 100 |  |  |  |  |  |
| CC(C)(C)OC(=O)NCCn1cc2c(n1)c(N)nc1cc(-c3cc[nH]n3)ccc12 [Example 118, tert-butyl N-{2-[4-amino-7-(1H-pyrazol-3-yl)-2H-pyrazolo[3,4-c]quinolin-2-yl]ethyl}carbamate] | 0.86 | > 100 | > 100 |  |  |  |  |  |
| Nc1nc2cc(-c3cc[nH]n3)ccc2c2cn(CCNC(=O)c3cnn4cccnc34)nc12 [Example 101] | 2.39 | > 100 | > 100 |  |  |  |  |  |
| CCN(CC)C(=O)C(C)n1cc2c(N)nc3cc(-c4ccn[nH]4)ccc3c2n1 (stereo not drawn) [Example 583] |  |  |  | 1.82 | > 100 | > 100 |  |  |
| Nc1nc2cc(-c3cc[nH]n3)ccc2c2cn(CCN3CCOCC3)nc12 [Example 20, 2-[2-(morpholin-4-yl)ethyl]-7-(1H-pyrazol-3-yl)-2H-pyrazolo[3,4-c]quinolin-4-amine] |  | 20 to 100 | > 100 |  |  |  |  | 1.08 |
| CO[C@@H](CO)Cn1cc2c(N)nc3cc(-n4cccn4)ccc3c2n1 [Example 388] | 0.31 | > 100 | > 100 |  |  |  |  |  |

The next lines start with results.

| EC50 [1, 4] [µM] | EC50 ([2]; activity range class) [µM] | EC50 ([3]; activity range class) [µM] | EC50 [1, 5] [µM] | EC50 ([2]; activity range) [µM] | EC50 ([3]; activity range) [µM] | EC50 ([1]; IL-1β production, human, read-out: NLRP3 hILIB EC50) [µM] | SMILES | EC50 [1, 6] [µM] |
| --- | --- | --- | --- | --- | --- | --- | --- | --- |
| 0.39 | > 100 | 20 to 100 |  |  |  |  | Nc1nc2cc(-c3cc[nH]n3)ccc2c2cn(Cc3nc(-c4ccccc4)no3)nc12 [Example 169] |  |
| 4.32 | > 100 | > 100 |  |  |  |  | CCOCC(=O)NC(C)Cn1cc2c(N)nc3cc(-c4ccn[nH]4)ccc3c2n1 (stereo not drawn) [Example 298] |  |
| 0.21 | > 100 | > 100 |  |  |  |  | Nc1nc2cc(-c3cc[nH]n3)ccc2c2cn(Cc3nnc(-c4ccccc4)o3)nc12 [Example 172] |  |
| 2.83 | > 100 | > 100 |  |  |  |  | CCC(=O)NC(C)Cn1cc2c(N)nc3cc(-c4ccn[nH]4)ccc3c2n1 (stereo not drawn) [Example 297] |  |
| 1.07 | > 100 | > 100 |  |  |  |  | Nc1nc2cc(-c3ccn[nH]3)ccc2c2nn(CCN3CCC3)cc12 [Example 271] |  |
| 0.91 | 20 to 100 | 20 to 100 |  |  |  |  | Nc1nc2cc(-c3cc[nH]n3)ccc2c2cn(CCNCc3ccccc3)nc12 [Example 108] |  |
| 1.17 | > 100 | > 100 |  |  |  |  | Nc1nc2cc(-c3cc[nH]n3)ccc2c2c1cnn2CCO [Example 217] |  |
| 0.21 | > 100 | 20 to 100 |  |  |  |  | Cc1ccc(C(=O)NCCn2cc3c(n2)c(N)nc2cc(-c4cc[nH]n4)ccc23)nc1 [Example 94] |  |
| 0.12 | > 100 | > 100 |  |  |  |  | CCCn1cc2c(N)nc3cc(-c4cc[nH]n4)ccc3c2n1 [Example 220] |  |
| 0.19 | > 100 | > 100 |  |  |  |  | C[C@H](O)Cn1cc2c(N)nc3cc(-c4cc[nH]n4)ccc3c2n1 [Example 369] |  |
| 0.42 | > 100 | > 100 |  |  |  |  | CCC(O)Cn1cc2c(N)nc3cc(-c4cc[nH]n4)ccc3c2n1 (stereo not drawn) [Example 366] |  |
| 4.38 | > 100 | > 100 |  |  |  |  | CC(=O)N1CCOCC1Cn1cc2c(N)nc3cc(-c4ccn[nH]4)ccc3c2n1 (stereo not drawn) [Example 269] |  |
